Results: US20060121449A1, “Method for selection of compounds which inhibit clonal cell growth and use thereof” (priority 2002, published 2006)
“Also recorded” adds a separate entry of the source.

Legend:
[1] = test system: polyoma virus transformed BHK21/c13 cells, line S100T1;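 further: soft agar cultures in 24-well plates with a cell density gradient in the top layer, compounds applied from DMSO stocks, clonal growth scored in sparse versus dense areas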;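 on Clonal growth, H high density area of cell gradient, High: grades rise with clonal growth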;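 on Clonal growth, H high density area of cell gradient, Low: grades rise with clonal growth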;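 on Clonal growth, H high density area of cell gradient, Medium: grades rise with clonal growth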;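 on Clonal growth, L low density area of cell gradient, High: grades rise with clonal growth and minus or plus-minus means none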;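 on Clonal growth, L low density area of cell gradient, Low: grades rise with clonal growth and minus or plus-minus means none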
[2] = test system: polyoma virus transformed BHK21/c13 cells, line S100T1; experiment: Collocation inhibition test: clonal growth in sparsely and densely seeded areas of a cell density gradient of S100T1 cells in soft agar (Exp 13, 17, 19-26); settings: for Significance: Exp 17 day 14;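 on Clonal growth, H high density area of cell gradient, High: grades rise with clonal growth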;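 on Clonal growth, H high density area of cell gradient, Low: grades rise with clonal growth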;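 on Clonal growth, H high density area of cell gradient, Medium: grades rise with clonal growth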;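 on Clonal growth, L low density area of cell gradient, High: grades rise with clonal growth and minus or plus-minus means none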;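 on Clonal growth, L low density area of cell gradient, Low: grades rise with clonal growth and minus or plus-minus means none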;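 on all read-outs here: soft agar cultures in 24-well plates with a cell density gradient in the top layer, compounds applied from DMSO stocks, clonal growth scored in sparse versus dense areas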
[3] = preliminary results, Exp 13-18, 21-26, high concentration
[4] = preliminary results, Exp 13-18, 21-26, low concentration
[5] = preliminary results, Exp 13-18, 21-26, medium concentration

COc1cc([C@@H]2c3cc4c(cc3[C@@H](O[C@@H]3O[C@@H]5CO[C@@H](C)O[C@H]5[C@H](O)[C@H]3O)[C@H]3COC(=O)[C@H]23)OCO4)cc(OC)c1O [Etoposide, reference compound]
Toxicity for body or dense cell populations [1]: yes
Inhibition of cells in crowded areas ([2]; Exp 17): induce the best inhibition of cells in crowded areas
Effect on growth in high- and low-density areas ([2]; Exp 17, 144000 S100T1 cells/well): growth inhibition of both high and low-density areas; also recorded: significant inhibition of growth in crowded areas
Clonal growth, results read on the day 14 ([2]; Exp 17, a: close to densely seeded cell areas, High: Colchicine 1, Podophyllotoxin 3, Etoposide 200, 4-OH—OPB 6.7 μM in wells, DMSO 29.2 μl): (+)
Clonal growth, results read on the day 14 ([2]; Exp 17, a: close to densely seeded cell areas, Low: Colchicine 0.1, Podophyllotoxin 0.3, Etoposide 20, 4-OH—OPB 0.67 μM in wells, DMSO 1.16 μl): +
Clonal growth, results read on the day 14 ([2]; Exp 17, a: close to densely seeded cell areas, Medium: Colchicine 0.3, Podophyllotoxin 0.9, Etoposide 60, 4-OH—OPB 2 μM in wells, DMSO 6.8 μl): +
Clonal growth, results read on the day 14 ([2]; Exp 17, b: sparsely seeded areas in the same agar culture, High: Colchicine 1, Podophyllotoxin 3, Etoposide 200, 4-OH—OPB 6.7 μM in wells, DMSO 29.2 μl): (+)
Clonal growth, results read on the day 14 ([2]; Exp 17, b: sparsely seeded areas in the same agar culture, Low: Colchicine 0.1, Podophyllotoxin 0.3, Etoposide 20, 4-OH—OPB 0.67 μM in wells, DMSO 1.16 μl): (+)
Clonal growth, results read on the day 14 ([2]; Exp 17, b: sparsely seeded areas in the same agar culture, Medium: Colchicine 0.3, Podophyllotoxin 0.9, Etoposide 60, 4-OH—OPB 2 μM in wells, DMSO 6.8 μl): (+)
Clones in sparsely seeded locations of the agar ([2]; Exp 17, compared with 4-OH-OPB): allow the growth of a few small clones in sparsely seeded locations of the agar; also recorded: to allow the growth of a few small clones in sparsely
Significance ([2]; a: close to densely seeded cell areas, High: Colchicine 1, Podophyllotoxin 3, Etoposide 200, 4-OH—OPB 6.7 μM in wells, DMSO 29.2 μl): Possible
Significance ([2]; a: close to densely seeded cell areas, Low: Colchicine 0.1, Podophyllotoxin 0.3, Etoposide 20, 4-OH—OPB 0.67 μM in wells, DMSO 1.16 μl): No
Significance ([2]; a: close to densely seeded cell areas, Medium: Colchicine 0.3, Podophyllotoxin 0.9, Etoposide 60, 4-OH—OPB 2 μM in wells, DMSO 6.8 μl): No
Significance ([2]; b: sparsely seeded areas, High: Colchicine 1, Podophyllotoxin 3, Etoposide 200, 4-OH—OPB 6.7 μM in wells, DMSO 29.2 μl): Possible
Significance ([2]; b: sparsely seeded areas, Low: Colchicine 0.1, Podophyllotoxin 0.3, Etoposide 20, 4-OH—OPB 0.67 μM in wells, DMSO 1.16 μl): Possible
Significance ([2]; b: sparsely seeded areas, Medium: Colchicine 0.3, Podophyllotoxin 0.9, Etoposide 60, 4-OH—OPB 2 μM in wells, DMSO 6.8 μl): Possible
Control of metastatic cells leaving tumour ([2]; ability of cells to leave a tumour, grow and infiltrate locally or grow in sparsely seeded areas, concluded from Exp 17): probably not
Clonal growth, H high density area of cell gradient, High [2, 3]: (+)
Clonal growth, L low density area of cell gradient, High [2, 3]: (+)
Clonal growth, H high density area of cell gradient, Low [2, 4]: +
Clonal growth, L low density area of cell gradient, Low [2, 4]: (+)
Clonal growth, H high density area of cell gradient, Medium [2, 5]: +
Clonal growth, L low density area of cell gradient, Medium [2, 5]: (+)
Control of settlement of metastatic cells ([2]; single cells or very few cells spread to distant sites, concluded from Exp 17): partly
